Test results from patent US20230031406A1, “COMPOUNDS AND COMPOSITIONS FOR TREATING CONDITIONS ASSOCIATED WITH NLRP ACTIVITY” (Novartis AG, priority 2018, published 2023).
pIC50: −log10 of the molar value.

system: PMA-differentiated THP-1 cells; test: IL-1β production in PMA-differentiated THP-1 cells stimulated with gramicidin (hTHP-1 assay containing 2% fetal bovine serum; Procedures 1 and 2); assay type: cell-based, human; conditions: Homo sapiens, THP-1, Table B3; hTHP-1 assay, 2% fetal bovine serum; class symbols; read-out: IC50
Summary of the method: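 IL-1β release from PMA-differentiated THP-1 macrophage-like cells was triggered by 5 μM gramicidin for 2 h after 1 h compound exposure, then measured by HTRF.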

Row | SMILES | pIC50
1 | CC(C)c1nc2c(cc1NC(=O)N=S(N)(=O)c1cnc(C(C)(C)O)s1)CCC2 (single isomer, unassigned) [Example 701, (R) or (S)-2-(2-Hydroxypropan-2-yl)-N′-((2-isopropyl-6,7-dihydro-5H-cyclopenta[b]pyridin-3-yl)carbamoyl)thiazole-5-sulfonimidamide] | 4.52 to 5.30
2 | Cc1c(C(F)(F)F)nc2c(c1NC(=O)N=S(N)(=O)c1cnc(C(C)(C)O)s1)CCC2C (single isomer, unassigned) [Example 705, (S, R) or (S, S)-N′-((3,7-dimethyl-2-(trifluoromethyl)-6,7-dihydro-5H-cyclopenta[b]pyridin-4-yl)carbamoyl)-2-(2-hydroxypropan-2-yl)thiazole-5-sulfonimidamide] | 4.52 to 5.30
3 | CCn1cc(F)c(S(N)(=O)=NC(=O)Nc2c(C)c(CC(F)(F)F)nc3c2CCC3)n1 (single isomer, unassigned) [Example 717, (R) or (S)-1-ethyl-4-fluoro-N′-((3-methyl-2-(2,2,2-trifluoroethyl)-6,7-dihydro-5H-cyclopenta[b]pyridin-4-yl)carbamoyl)-1H-pyrazole-3-sulfonimidamide] | 5.30 to 6.00
4 | Cc1c(C(F)(F)F)nc2c(c1NC(=O)N=S(N)(=O)c1cc(CO)n(C(C)C)n1)CCC2 (single isomer, unassigned) [Example 719, (S) or (R)-5-(hydroxymethyl)-1-isopropyl-N′-((3-methyl-2-(trifluoromethyl)-6,7-dihydro-5H-cyclopenta[b]pyridin-4-yl)carbamoyl)-1H-pyrazole-3-sulfonimidamide] | 5.30 to 6.00
5 | Cc1c(CC(F)(F)F)nc2c(c1NC(=O)N=S(N)(=O)c1nn(C(F)F)cc1F)CCC2 (single isomer, unassigned) [Example 723, (R) or (S)-1-(difluoromethyl)-4-fluoro-N′-((3-methyl-2-(2,2,2-trifluoroethyl)-6,7-dihydro-5H-cyclopenta[b]pyridin-4-yl)carbamoyl)-1H-pyrazole-3-sulfonimidamide] | 5.30 to 6.00

same assay, conditions: Homo sapiens, THP-1, Table B3; hTHP-1 assay, 2% fetal bovine serum; numeric values; read-out: IC50

Row | SMILES | pIC50
6 | CC(C)c1nc2c(cc1NC(=O)N=S(N)(=O)c1cnc(C(C)(C)O)s1)CCC2 (single isomer, unassigned) [Example 702, (S) or (R)-2-(2-Hydroxypropan-2-yl)-N′-((2-isopropyl-6,7-dihydro-5H-cyclopenta[b]pyridin-3-yl)carbamoyl)thiazole-5-sulfonimidamide] | < 4.52
7 | CCn1cc(F)c(S(N)(=O)=NC(=O)Nc2c(C)c(CC(F)(F)F)nc3c2CCC3)n1 (single isomer, unassigned) [Example 718, (S) or (R)-1-ethyl-4-fluoro-N′-((3-methyl-2-(2,2,2-trifluoroethyl)-6,7-dihydro-5H-cyclopenta[b]pyridin-4-yl)carbamoyl)-1H-pyrazole-3-sulfonimidamide] | < 4.52
8 | Cc1c(C(F)(F)F)nc2c(c1NC(=O)N=S(N)(=O)c1cc(CO)n(C(C)C)n1)CCC2 (single isomer, unassigned) [Example 720, (R) or (S)-5-(hydroxymethyl)-1-isopropyl-N′-((3-methyl-2-(trifluoromethyl)-6,7-dihydro-5H-cyclopenta[b]pyridin-4-yl)carbamoyl)-1H-pyrazole-3-sulfonimidamide] | ~4.52
9 | Cc1c(CC(F)(F)F)nc2c(c1NC(=O)N=S(N)(=O)c1nn(C(F)F)cc1F)CCC2 (single isomer, unassigned) [Example 724, (S) or (R)-1-(difluoromethyl)-4-fluoro-N′-((3-methyl-2-(2,2,2-trifluoroethyl)-6,7-dihydro-5H-cyclopenta[b]pyridin-4-yl)carbamoyl)-1H-pyrazole-3-sulfonimidamide] | < 4.52

same assay, conditions: Table B3; hTHP-1 assay, 2% fetal bovine serum; class symbols; read-out: IC50

Row | SMILES | pIC50
10 | CCn1ccc(S(N)(=O)=NC(=O)Nc2c3c(nc(C4CC4)c2C2CC2)CCC3)n1 (single isomer, unassigned) [Example 700, (S) or (R)-N′-((2,3-dicyclopropyl-6,7-dihydro-5H-cyclopenta[b]pyridin-4-yl)carbamoyl)-1-ethyl-1H-pyrazole-3-sulfonimidamide] | 4.52 to 5.30
11 | Cc1c(C(F)(F)F)nc2c(c1NC(=O)N=S(N)(=O)c1cnc(C(C)(C)O)s1)CCC2C (single isomer, unassigned) [Example 703, (R/S, S) or (R/S, R)-N′-((3,7-dimethyl-2-(trifluoromethyl)-6,7-dihydro-5H-cyclopenta[b]pyridin-4-yl)carbamoyl)-2-(2-hydroxypropan-2-yl)thiazole-5-sulfonimidamide] | 5.30 to 6.00
12 | Cc1c(C(F)(F)F)nc2c(c1NC(=O)N=S(N)(=O)c1cnc(C(C)(C)O)s1)CCC2C (single isomer, unassigned) [Example 704, (R/S, R) or (R/S, S)-N′-((3,7-dimethyl-2-(trifluoromethyl)-6,7-dihydro-5H-cyclopenta[b]pyridin-4-yl)carbamoyl)-2-(2-hydroxypropan-2-yl)thiazole-5-sulfonimidamide] | 6.00 to 6.70
13 | Cc1c(C(F)(F)F)nc2c(c1NC(=O)N=S(N)(=O)c1cnc(C(C)(C)O)s1)CCC2C (single isomer, unassigned) [Example 706, (R, R) or (R, S)-N′-((3,7-dimethyl-2-(trifluoromethyl)-6,7-dihydro-5H-cyclopenta[b]pyridin-4-yl)carbamoyl)-2-(2-hydroxypropan-2-yl)thiazole-5-sulfonimidamide] | 6.00 to 6.70
14 | CCn1cc(F)c(S(N)(=O)=NC(=O)Nc2c3c(nc(C4CC4)c2C2CC2)CCC3)n1 (single isomer, unassigned) [Example 707, (R) or (S)-N′-((2,3-dicyclopropyl-6,7-dihydro-5H-cyclopenta[b]pyridin-4-yl)carbamoyl)-1-ethyl-4-fluoro-1H-pyrazole-3-sulfonimidamide] | 7.40 to 8.10
15 | CCn1cc(F)c(S(N)(=O)=NC(=O)Nc2c3c(nc(C4CC4)c2C2CC2)CCC3)n1 (single isomer, unassigned) [Example 708, (S) or (R)-N′-((2,3-dicyclopropyl-6,7-dihydro-5H-cyclopenta[b]pyridin-4-yl)carbamoyl)-1-ethyl-4-fluoro-1H-pyrazole-3-sulfonimidamide] | 4.52 to 5.30
16 | CCc1c(C(F)(F)F)nc2c(c1NC(=O)N=S(N)(=O)c1nn(C(F)F)cc1F)CCC2 (single isomer, unassigned) [Example 709, (R) or (S)-1-(difluoromethyl)-N′-((3-ethyl-2-(trifluoromethyl)-6,7-dihydro-5H-cyclopenta[b]pyridin-4-yl)carbamoyl)-4-fluoro-1H-pyrazole-3-sulfonimidamide] | 5.30 to 6.00
17 | CCc1c(C(F)(F)F)nc2c(c1NC(=O)N=S(N)(=O)c1nn(C(F)F)cc1F)CCC2 (single isomer, unassigned) [Example 710, (S) or (R)-1-(difluoromethyl)-N′-((3-ethyl-2-(trifluoromethyl)-6,7-dihydro-5H-cyclopenta[b]pyridin-4-yl)carbamoyl)-4-fluoro-1H-pyrazole-3-sulfonimidamide] | 4.52 to 5.30
18 | CCn1cc(F)c(S(N)(=O)=NC(=O)Nc2c3c(nc4c2CC[C@@H]4C)CCC3)n1 (single isomer, unassigned) [Example 711, (R) or (S)-1-ethyl-4-fluoro-N′-(((S)-3-methyl-1,2,3,5,6,7-hexahydrodicyclopenta[b,e]pyridin-8-yl)carbamoyl)-1H-pyrazole-3-sulfonimidamide] | 6.70 to 7.40
19 | CCn1cc(F)c(S(N)(=O)=NC(=O)Nc2c3c(nc4c2CC[C@@H]4C)CCC3)n1 (single isomer, unassigned) [Example 712, (S) or (R)-1-ethyl-4-fluoro-N′-(((S)-3-methyl-1,2,3,5,6,7-hexahydrodicyclopenta[b,e]pyridin-8-yl)carbamoyl)-1H-pyrazole-3-sulfonimidamide] | 4.52 to 5.30
20 | CCn1cc(F)c(S(N)(=O)=NC(=O)Nc2c(C)c(C3CC3)nc3c2CCC3)n1 (single isomer, unassigned) [Example 713, (R) or (S)-N′-((2-cyclopropyl-3-methyl-6,7-dihydro-5H-cyclopenta[b]pyridin-4-yl)carbamoyl)-1-ethyl-4-fluoro-1H-pyrazole-3-sulfonimidamide] | 6.70 to 7.40
21 | CCn1cc(F)c(S(N)(=O)=NC(=O)Nc2c(C)c(C3CC3)nc3c2CCC3)n1 (single isomer, unassigned) [Example 714, (S) or (R)-N′-((2-cyclopropyl-3-methyl-6,7-dihydro-5H-cyclopenta[b]pyridin-4-yl)carbamoyl)-1-ethyl-4-fluoro-1H-pyrazole-3-sulfonimidamide] | 5.30 to 6.00
22 | CCn1cc(F)c(S(N)(=O)=NC(=O)Nc2c3c(nc4c2CCC4(C)C)CCC3)n1 (single isomer, unassigned) [Example 715, (R) or (S)-N′-((3,3-dimethyl-1,2,3,5,6,7-hexahydrodicyclopenta[b,e]pyridin-8-yl)carbamoyl)-1-ethyl-4-fluoro-1H-pyrazole-3-sulfonimidamide] | > 8.10
23 | CCn1cc(F)c(S(N)(=O)=NC(=O)Nc2c3c(nc4c2CCC4(C)C)CCC3)n1 (single isomer, unassigned) [Example 716, (S) or (R)-N′-((3,3-dimethyl-1,2,3,5,6,7-hexahydrodicyclopenta[b,e]pyridin-8-yl)carbamoyl)-1-ethyl-4-fluoro-1H-pyrazole-3-sulfonimidamide] | 5.30 to 6.00
24 | CC1(C)CCc2c1nc1c(c2NC(=O)N=S(N)(=O)c2nn(C(F)F)cc2F)CCC1 (single isomer, unassigned) [Example 721, (R) or (S)-1-(difluoromethyl)-N′-((3,3-dimethyl-1,2,3,5,6,7-hexahydrodicyclopenta[b,e]pyridin-8-yl)carbamoyl)-4-fluoro-1H-pyrazole-3-sulfonimidamide] | 6.70 to 7.40
25 | CC1(C)CCc2c1nc1c(c2NC(=O)N=S(N)(=O)c2nn(C(F)F)cc2F)CCC1 (single isomer, unassigned) [Example 722, (S) or (R)-1-(difluoromethyl)-N′-((3,3-dimethyl-1,2,3,5,6,7-hexahydrodicyclopenta[b,e]pyridin-8-yl)carbamoyl)-4-fluoro-1H-pyrazole-3-sulfonimidamide] | 5.30 to 6.00
